Entries after “also recorded” stand apart in the source; their conditions may differ.
Tests used:
[1] = tested on: antennae of male P. interpunctella; experiment: GC-EAD electrophysiology of yeast-produced pheromone, male Plodia interpunctella antennae; conditions: extracts of yeast cell pellet and medium
Description: (§1) Insect rearing and tissue collection. The E. cautella individuals were reared on an artificial diet at 25±2.0° C. under an L16:D8 photoperiod as previously described in the field. Freshly emerged female adults were collected daily before the scotophase and considered to be 0 d old. The female pupae were collected separately, and the newly emerged adults were maintained in a vial under the same conditions. Laboratory cultures of S. exigua and P. interpunctella were reared at 23±1° C. under a 17:7 L:D photoperiod and 60% relative humidity and fed on wheat-germs based and beans based artificial diet, respectively. The male and female pupae were kept separately. Adults were fed with a 10% honey solution, and two- to three-day-old unmated males were used for the electrophysiological experiments.
Electrophysiology of ZETA yeast produced pheromone. The antennal electrophysiological activity of the yeast-derived pheromone was tested by gas chromatography with electroantennographic detection (GC-EAD). An Agilent 7890 gas chromatograph equipped with a flame ionization detector (FID), an HP-INNOWax column (30 m×0.25 mm i.d., and 0.25 μm film thickness; J&W Scientific, USA) was used. Antennae of male S. exigua and P. interpunctella with both tips cut-off and associated with the head were mounted on a PRG-2 EAG (10× gain) probe (Syntech, Kirchzarten, Germany) using conductive gel (Blågel, Cefar, Malmö, Sweden). The antennal preparation was put in a flow of charcoal-filtered and humidified air that passed through the column outlet. Hydrogen was used as the carrier gas with a constant flow of 1.8 mL/min, and the GC effluent was directed to the FID and EAD by a 1:1 division. The GC inlet was set at 250° C., the transfer line was set at 255° C., and the detector was set at 280° C. The GC oven was programmed from 80° C. for 1 min, then increased to 210° C. at a rate of 10° C./min and held for 10 min. Data were collected with the software GC-EAD Pro Version 4.1 (Syntech).

[2] = tested on: antennae of male S. exigua; experiment: GC-EAD electrophysiology of yeast-produced pheromone, male Spodoptera exigua antennae; conditions: extracts of yeast cell pellet and medium
Description: as §1
Electrophysiology of ZETA yeast produced pheromone. The antennal electrophysiological activity of the yeast-derived pheromone was tested by gas chromatography with electroantennographic detection (GC-EAD). An Agilent 7890 gas chromatograph equipped with a flame ionization detector (FID), an HP-INNOWax column (30 m×0.25 mm i.d., and 0.25 μm film thickness; J&W Scientific, USA) was used. […]

Row | Compound | antennal response (EAD) [1] | antennal response (EAD) [2]
1 | CCCC/C=C\CCCCCCCCOC(C)=O [Z9-14:OAc, (Z)-9-tetradecenyl acetate] | responded strongly | responded strongly
2 | C/C=C/C/C=C\CCCCCCCCOC(C)=O [ZETA, (Z,E)-9,12-tetradecadienyl acetate] | distinct antennal responses; also recorded: responded strongly; also recorded: typical antennal responses | distinct antennal responses; also recorded: responded strongly; also recorded: typical antennal responses
3 | CCCCCCCCCCCCCCOC(C)=O [tetradecanyl acetate] | minor response | –
